From publication PMC3718742, “Proline Dehydrogenase Regulates Redox State and Respiratory Metabolism in Trypanosoma cruzi” (PLoS ONE, 2013)

T1: recombinant TcPRODH (Trypanosoma cruzi, UniProt Q4CVA1)
T1 construct: gene Tc00.1047053506411.30; dimer (native gel of mitochondria, 140 kDa)
T1 sequence (Q4CVA1 17-566): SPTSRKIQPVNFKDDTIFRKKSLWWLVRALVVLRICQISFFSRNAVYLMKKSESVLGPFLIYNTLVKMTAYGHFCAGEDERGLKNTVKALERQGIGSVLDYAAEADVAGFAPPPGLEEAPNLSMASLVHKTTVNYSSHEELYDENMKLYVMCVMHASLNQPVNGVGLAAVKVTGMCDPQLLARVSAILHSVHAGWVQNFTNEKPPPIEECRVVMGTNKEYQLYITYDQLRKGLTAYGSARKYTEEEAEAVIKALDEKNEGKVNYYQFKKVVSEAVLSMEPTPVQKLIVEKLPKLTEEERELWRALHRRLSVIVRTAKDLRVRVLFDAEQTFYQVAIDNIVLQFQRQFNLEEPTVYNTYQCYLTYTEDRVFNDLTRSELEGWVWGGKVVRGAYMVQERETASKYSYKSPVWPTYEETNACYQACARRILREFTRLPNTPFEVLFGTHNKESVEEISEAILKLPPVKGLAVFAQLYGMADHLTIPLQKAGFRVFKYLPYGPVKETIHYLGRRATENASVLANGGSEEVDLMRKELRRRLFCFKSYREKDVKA

B1: recombinant TcPRODH (Trypanosoma cruzi strain CL Brener) (protein)
chain: SPTSRKIQPVNFKDDTIFRKKSLWWLVRALVVLRICQISFFSRNAVYLMKKSESVLGPFLIYNTLVKMTAYGHFCAGEDERGLKNTVKALERQGIGSVLDYAAEADVAGFAPPPGLEEAPNLSMASLVHKTTVNYSSHEELYDENMKLYVMCVMHASLNQPVNGVGLAAVKVTGMCDPQLLARVSAILHSVHAGWVQNFTNEKPPPIEECRVVMGTNKEYQLYITYDQLRKGLTAYGSARKYTEEEAEAVIKALDEKNEGKVNYYQFKKVVSEAVLSMEPTPVQKLIVEKLPKLTEEERELWRALHRRLSVIVRTAKDLRVRVLFDAEQTFYQVAIDNIVLQFQRQFNLEEPTVYNTYQCYLTYTEDRVFNDLTRSELEGWVWGGKVVRGAYMVQERETASKYSYKSPVWPTYEETNACYQACARRILREFTRLPNTPFEVLFGTHNKESVEEISEAILKLPPVKGLAVFAQLYGMADHLTIPLQKAGFRVFKYLPYGPVKETIHYLGRRATENASVLANGGSEEVDLMRKELRRRLFCFKSYREKDVKA

Tests used:
recombinant TcPRODH = target: T1, recombinant TcPRODH; assay: UV-visible spectrum of purified enzyme; cofactor dependence of activity; format: biochemical; conditions: flavin peaks at 370 and 450 nm; NAD+ and NADP+ not accepted
purified protein = substrate: O=C(O)[C@@H]1CCCN1; assay: purified protein; conditions: DCPIP/phenazine methosulfate acceptor, MOPS, MgCl2, glycerol, pH 7.5, error printed as ±1.69 in text (b1)

Row | Molecule | UV-visible spectrum of purified enzyme; cofactor dependence of activity (recombinant TcPRODH) | Km (purified protein) [µM]
1 | Cc1cc2nc3c(=O)[nH]c(=O)nc-3n(C[C@H](O)[C@H](O)[C@H](O)COP(=O)(O)OP(=O)(O)OC[C@H]3O[C@@H](n4cnc5c(N)ncnc54)[C@H](O)[C@@H]3O)c2cc1C [FAD] | purified enzyme had a typical flavoprotein absorbance spectrum, characterized by two flavin absorption peaks | –
2 | B1 | – | 16.58 ± 6.08
